PubChem BioAssay (NCI)
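Test compounds were applied to cells in 96-well plates for 48 hours at 5 doses. The concentration for 50% growth inhibition is given as GI50. Definition used: TGI = concentration required for complete inhibition of growth.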

Assays:
Test in all cases: NCI-60 cell line screen, 48 h
[1] = system: UO-31 renal
[2] = system: SK-MEL-28 melanoma
[3] = system: MALME-3M melanoma
[4] = system: OVCAR-8 ovarian
[5] = system: U251 CNS
[6] = system: HCT-116 colon
[7] = system: SK-MEL-5 melanoma
[8] = system: SK-MEL-2 melanoma
[9] = system: HS 578T breast
[10] = system: DU-145 prostate

| SMILES | TGI [1] [µM] | TGI [2] [µM] | TGI [3] [µM] | TGI [4] [µM] | TGI [5] [µM] | TGI [6] [µM] | TGI [7] [µM] | TGI [8] [µM] | GI50 [1] [µM] | GI50 [9] [µM] | TGI [9] [µM] | GI50 [2] [µM] | GI50 [3] [µM] | GI50 [10] [µM] | TGI [10] [µM] | GI50 [4] [µM] | GI50 [5] [µM] | GI50 [6] [µM] | GI50 [7] [µM] | GI50 [8] [µM] |
| --- | --- | --- | --- | --- | --- | --- | --- | --- | --- | --- | --- | --- | --- | --- | --- | --- | --- | --- | --- | --- |
| Cc1nc2c(n1C(C)(C)C)C(=O)c1ccccc1C2=O | > 100 | > 100 | > 100 | > 100 | > 100 | > 100 | > 100 | > 100 |  |  |  |  |  |  |  |  |  |  |  |  |
| CC(C)=CC(=O)O[C@H]1C(=O)O[C@@H]2C[C@H]3[C@H](C)C(=O)C(O[C@@H]4O[C@H](CO)[C@@H](O)[C@H](O)[C@H]4O)=C[C@]3(C)[C@H]3[C@@H](O)[C@H](O)[C@]4(C(=O)O)OC[C@]32[C@@H]14 | > 100 | > 100 | 61.1 | > 100 | > 100 | > 100 | > 100 |  | 31.3 | > 100 | > 100 | 37.3 | 24.2 | > 100 | > 100 | > 100 | 40 | 29.8 | 42.9 |  |
| CC1(C)N=C(C(N)=O)c2ncn(CCO)c2N1 |  | > 100 | > 100 | > 100 | > 100 | > 100 | > 100 |  |  |  | > 100 |  |  |  | > 100 |  |  |  |  |  |
| CC(C)SC(C)(NC(=O)C1C(C)(C)CCC1(C)C)C(=O)O (stereo unspecified) | > 100 | > 100 |  |  | > 100 | > 100 | > 100 | > 100 |  |  | > 100 |  |  |  | > 100 |  |  |  |  |  |
| Cc1c(C(=O)N2CCN(c3ccc([N+](=O)[O-])cc3)CC2)[n+](=O)c2cc(Cl)c(Cl)cc2n1[O-] |  | 73.4 | 48.4 | 33 | 61.5 | 40.5 | 24.6 | > 100 |  |  | 93.6 |  |  |  | 43.9 |  |  |  |  |  |
| COc1cc2c(c(OC)c1OC)-c1ccc(SC)c(=O)cc1[C@@H](OC(C)=O)CC2 | > 52.5 | > 100 | > 100 | > 100 | > 100 | > 100 |  |  |  |  | > 100 |  |  |  | > 100 |  |  |  |  |  |
| CN1C(=S)C(c2ccccc2)Sc2ccccc21 (stereo unspecified) | > 100 | > 100 | > 100 | > 100 | > 100 | > 100 | > 100 |  |  |  | > 100 |  |  |  | > 100 |  |  |  |  |  |
| NC(=Nc1ccc(O)cc1)S(=O)(=O)O | > 100 |  | > 100 | > 100 | > 100 | > 100 | > 100 | > 100 |  |  | > 100 |  |  |  | > 100 |  |  |  |  |  |
| COc1ccc(O[C@H](COCc2ccccc2)C[C@@H]2COC(C)(C)O2)cc1 | > 100 | > 100 | > 100 | > 100 | > 100 | > 100 | > 100 | > 100 |  |  |  |  |  |  | > 100 |  |  |  |  |  |
| Cn1c(=O)c2c(nc3n(Cc4ccccc4)c(=O)c(NCCBr)cn23)n(C)c1=O | 36 | > 100 |  | 33.8 | > 100 | 82 | > 100 | 74.2 |  |  | 76.6 |  |  |  | > 100 |  |  |  |  |  |
| CN(C)c1ccc(/C=C2\N=C(NN)NC2=O)cc1 | > 100 | > 100 | > 100 | > 100 | > 100 | > 100 |  | > 100 |  |  | > 100 |  |  |  | > 100 |  |  |  |  |  |
| COc1ccccc1-c1cc(=O)c2ccccc2[nH]1 | > 100 | > 100 | > 100 | > 100 | > 100 | > 100 |  |  |  |  |  |  |  |  |  |  |  |  |  |  |
| O=C(N=C1SCCN1C(=O)C(C(F)(F)F)C(F)(F)F)C(C(F)(F)F)C(F)(F)F | > 100 | > 100 | > 100 | > 100 | > 100 | > 100 | > 100 | > 100 |  |  |  |  |  |  |  |  |  |  |  |  |
| COc1ccc(N2C(=Nc3ccccc3)SC(=N/S(=O)(=O)c3ccccc3)/C2=N\S(=O)(=O)c2ccccc2)cc1 | 55.3 | 33.9 | 53.9 | 39.6 | 35.4 | 28.2 | 31.9 |  |  |  | 55.7 |  |  |  |  |  |  |  |  |  |
| Cc1ccnc2[nH]c(-c3cccc(Cl)c3)cc(=O)c12 | > 70.2 | > 100 |  | > 100 |  |  | > 35.7 | > 100 |  |  | > 100 |  |  |  | > 100 |  |  |  |  |  |
| CCCCCC(=O)N[C@@H](c1ccccc1)C(O)C(=O)OC1C[C@@]2(O)C(OC(=O)c3ccccc3)C3[C@](C)(C(=O)[C@H](O)C(=C1C)C2(C)C)C(OC1OCC(O)C(O)C1O)C[C@H]1OC[C@@]31OC(C)=O (stereo partly specified) | > 100 | > 100 | > 26.1 | > 100 | > 100 | > 100 | > 100 |  |  |  | 8.23 |  |  |  | 13.4 |  |  |  |  |  |
| O=c1c(SSc2coc3cc(F)ccc3c2=O)coc2cc(F)ccc12 | 52.7 | 30.4 | > 100 | > 100 | 79 | 19.3 | 46.2 |  |  |  | 68 |  |  |  | > 100 |  |  |  |  |  |
| CCOc1ccc(/C=C(\Cl)c2ccc(OC)c(OC)c2)cc1 | > 100 | > 100 | > 100 | > 100 | > 100 | > 100 | > 100 |  |  |  |  |  |  |  |  |  |  |  |  |  |
| CC(=O)[C@@H]1CCC=C2CC[C@]3(C)[C@@H](CC[C@@H]4[C@@]5(C)CCCNC(C)(C)[C@@H]5CC[C@]43C)[C@H]21 | 2.89 | 3.35 |  | 3.94 | 3.27 |  |  | 3.69 | 1.52 | 1.87 | 4.39 | 1.81 |  | 1.77 | 3.33 | 1.99 | 1.76 |  |  | 2.01 |
| O=C1/C(=C\c2cccc(Oc3ccccc3)c2)S(=O)(=O)C(c2ccccc2)N1c1ccccc1Cl (stereo unspecified) | > 100 | > 100 | > 100 | > 100 | > 100 | 39.2 | 32 | > 100 |  |  |  |  |  |  | > 100 |  |  |  |  |  |
| CCCCCC(=O)c1ccc2[nH]c3c(C)cc([N+](=O)[O-])c(C)c3c2c1 | > 100 | > 100 | > 100 | > 100 |  | > 100 | > 100 | > 100 |  |  |  |  |  |  |  |  |  |  |  |  |
| Cc1c2c(cc3c1[nH]c1ccccc13)C=NCC2 | 59.9 | 16.8 | 11.7 | 36.4 | 47.3 | 14.6 | 12.7 | 21.1 |  |  |  |  |  |  |  |  |  |  |  |  |
